The supplement of paper PMC8967900

Columns and labels:
Test in all cases: selective drug sensitivity score (sDSS, relative to normal bone marrow) (sDSS (score)); higher = more potent and effective on the cell line relative to normal bone marrow cells
Conditions in all cases: 72 h
[1] = system: 380
[2] = system: CCRF-CEM
[3] = system: COG-LL-355h
[4] = system: DND-41
[5] = system: HAL-01
[6] = system: JURKAT
[7] = system: KARPAS-45
[8] = system: KASUMI-9
[9] = system: KOPN-8
[10] = system: MHH-CALL-3
[11] = system: MN-60
[12] = system: MOLT-16
[13] = system: NALM-16
[14] = system: P30-OHKUBO
[15] = system: PEER
[16] = system: RCH-ACV
[17] = system: REH
[18] = system: RPMI-8402
[19] = system: SEM cells
[20] = system: TMD5
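Further: ALL cell lines in 384-well plates, five doses spanning 10,000-fold, each plate scaled between vehicle and 100 µmol/L benzalkonium chloride controls, sDSS an adapted area-under-curve metric.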

SMILES	selective drug sensitivity score [1]	selective drug sensitivity score [2]	selective drug sensitivity score [3]	selective drug sensitivity score [4]	selective drug sensitivity score [5]	selective drug sensitivity score [6]	selective drug sensitivity score [7]	selective drug sensitivity score [8]	selective drug sensitivity score [9]	selective drug sensitivity score [10]	selective drug sensitivity score [11]	selective drug sensitivity score [12]	selective drug sensitivity score [13]	selective drug sensitivity score [14]	selective drug sensitivity score [15]	selective drug sensitivity score [16]	selective drug sensitivity score [17]	selective drug sensitivity score [18]	selective drug sensitivity score [19]	selective drug sensitivity score [20]
CCC(C)n1ncn(-c2ccc(N3CCN(c4ccc(OCC5COC(Cn6cncn6)(c6ccc(Cl)cc6Cl)O5)cc4)CC3)cc2)c1=O (stereo not given) [Itraconazole] (top concentration 5000 nM)	-1.72	-1.22	-4.22	6.98	2.28	1.58	6.18	-4.12	13.1	-4.32	-2.42	2.38	-4.32	-2.62	0.88	5.48	-4.32	0.98	-2.32	-2.32
Cc1sc2c(c1C)C(c1ccc(Cl)cc1)=N[C@@H](CC(=O)OC(C)(C)C)c1nnc(C)n1-2 [JQ1] (top concentration 10000 nM)	-0.88	1.32	3.72	2.52	6.12	-0.48	9.32	11.8	11.7	16	6.62	8.82	2.02	8.72	-1.88	12.3	-3.58	3.12	11.4	-3.08
CCNC(=O)c1noc(-c2cc(C(C)C)c(O)cc2O)c1-c1ccc(CN2CCOCC2)cc1 [Luminespib] (top concentration 1000 nM)	6.3	-0.5	6.5	-2	-3.7	-5.5	-2.7	-3	6.7	8.3	-4.6	4.6	-2.9	-3.9	-3.7	3.6	-1.5	-3.8	2.1	-6.3
O=C(c1cccc(Cl)c1F)N1CCN(Cc2cccc(Nc3nccs3)n2)CC1 [MK-8745] (top concentration 10000 nM)	18.3	12.1	2.7	5.5	7	9.8	23.8	13.2	13.2	7.1	1.6	12.2	12.4	9.1	9.8	9.7	11.6	9.4	18.3	9.4
Cc1ccc(NC(=O)c2ccc(CN3CCN(C)CC3)cc2)cc1Nc1nc(-c2cccnc2)cs1 [Masitinib] (top concentration 10000 nM)	-4.38	2.42	-1.78	-0.28	0.72	0.92	3.22	1.22	-1.58	-4.38	-1.58	3.42	-4.38	1.22	6.62	0.02	-0.98	1.82	0.22	1.82
